Experimental data taken from patent EP0799174B1, “BIOCIDAL ALCOHOLS, THEIR PRODUCTION AND THEIR USE” (SCHÜLKE & MAYR GMBH, priority 1994, dated 1996).

Tests used:
Format in all cases: cell-based
[1] = system: Staphylococcus aureus ATCC 6538; assay: Plate diffusion test (agar diffusion test); conditions: aromatic alcohol 1 part, dimethylformamide 6 parts
Text: (§1) Standard formulation: • aromatic alcohol 1 part • dimethylformamide 6 parts [table] The diameters of the inhibition zones are given in mm.

[2] = system: Candida albicans ATCC 10231; assay: Plate diffusion test (agar diffusion test); conditions: aromatic alcohol 1 part, dimethylformamide 6 parts
Text: as §1

[3] = system: Pseudomonas aeruginosa ATCC 15442; assay: Plate diffusion test (agar diffusion test); conditions: aromatic alcohol 1 part, dimethylformamide 6 parts
Text: as §1

[4] = system: Escherichia coli ATCC 11229; assay: Plate diffusion test (agar diffusion test); conditions: aromatic alcohol 1 part, dimethylformamide 6 parts
Text: as §1

[5] = system: Staphylococcus aureus ATCC 6538; assay: MIC values, water-insoluble (covered area of plates, solutions in acetone); conditions: solution in acetone, 100% means no inhibiting action
Text: (§2) [table] The size of the covered areas of the plates is given in %; 100% means no inhibiting action.

[6] = system: Candida albicans ATCC 10231; assay: as above; conditions: solution in acetone, 100% means no inhibiting action
Text: as §2

[7] = system: Escherichia coli ATCC 11229; assay: as above; conditions: solution in acetone, 100% means no inhibiting action
Text: as §2

[8] = system: Aspergillus niger ATCC 6275; assay: as above; conditions: solution in acetone, 100% means no inhibiting action
Text: as §2

P. vulgaris = system: P. vulgaris
Text: as §1

Row | SMILES | diameters of the inhibition zones, S. aureus [1] | diameters of the inhibition zones, C. albicans [2] | diameters of the inhibition zones, P. aeruginosa [3] | diameters of the inhibition zones, E. coli [4] | size of the covered areas of the plates, S. aureus ([5]; concentration 0.25 % by wt.) | size of the covered areas of the plates, S. aureus ([5]; concentration 0.50 % by wt.) | size of the covered areas of the plates, S. aureus ([5]; concentration 1.00 % by wt.) | size of the covered areas of the plates, C. albicans ([6]; concentration 0.25 % by wt.) | size of the covered areas of the plates, C. albicans ([6]; concentration 0.50 % by wt.) | size of the covered areas of the plates, C. albicans ([6]; concentration 1.00 % by wt.) | size of the covered areas of the plates, E. coli ([7]; concentration 0.25 % by wt.) | size of the covered areas of the plates, E. coli ([7]; concentration 0.50 % by wt.) | size of the covered areas of the plates, E. coli ([7]; concentration 1.00 % by wt.) | size of the covered areas of the plates, A. niger ([8]; concentration 0.25 % by wt.) | size of the covered areas of the plates, A. niger ([8]; concentration 0.50 % by wt.) | size of the covered areas of the plates, A. niger ([8]; concentration 1.00 % by wt.) | diameters of the inhibition zones, P. vulgaris (P. vulgaris) | further results
1 | CCC(CO)Cc1ccc(Cl)cc1 (stereo not shown) [Alcohol 10] | 14 mm | 15 mm | 0 mm | 11 mm | 100% | 100% | 10% | 100% | 90% | 10% | 100% | 100% | 100% | 90% | 70% | 10% | 0 mm | size of the covered areas of the plates, S. aureus ([5]; concentration 0.125 % by wt.): 100%; size of the covered areas of the plates, C. albicans ([6]; concentration 0.125 % by wt.): 100%; size of the covered areas of the plates, E. coli ([7]; concentration 0.125 % by wt.): 100%; size of the covered areas of the plates, A. niger ([8]; concentration 0.125 % by wt.): 100%
2 | CCC(CO)Cc1ccc(C)cc1 (stereo not shown) [Alcohol 13] | 16 mm | 19 mm | 13 mm | 13 mm | 100% | 100% | 90% | 100% | 100% | 90% | 100% | 100% | 95% | 100% | 90% | 20% | 14 mm | 
3 | CCC(CO)Cc1ccc(Cl)c(Cl)c1 (stereo not shown) [Alcohol 11] | 17 mm | 13 mm | 0 mm | 0 mm | 100% | 90% | 5% | 100% | 80% | 10% | 100% | 100% | 90% | 100% | 70% | 10% | 0 mm | 
